Source: patent EP4772177A1, “MUSCLE ATROPHY INHIBITOR” (National University Corporation Kobe University, priority 2023, dated 2025)

Tests used:
[1] = tested on: muscle atrophy model mice (immobilized mice); assay: Effects of hydroxylated fatty acid on muscle atrophy model mice (hind limbs immobilized with plastic casts); assay type: in vivo, C57BL/6J mice; conditions: 1% in diet for 20 days (immobilization for the latter 10 days); for loss of soleus muscle (muscle weight per body weight): Fig. 2, n = 6; for loss of gastrocnemius muscle (gastrocnemius muscle weight per body weight): Fig. 3, n = 6; for loss of soleus muscle cross-sectional area: HE staining, 400 fibers pooled from 2 mice, Fig. 4
From the text: C57BL/6J mice (male, 10 weeks old) were fed a normal diet (CE-2, CLEA Japan, Inc.), a 1% linoleic acid-containing diet (LA), or a 1% 10-hydroxy-cis-12-octadecenoic acid-containing diet (HYA) (LA manufactured by Sigma-Aldrich and HYA manufactured by Noster Inc. were used) each for 10 days. Then, under general anesthesia, both hind limbs of the mice were immobilized with plastic casts to create immobilized mice. After 10 days of immobilization (still receiving the normal diet or each mixed diet), the mice were sacrificed and weighed. Both soleus muscles were then collected and weighed. The comparison results of muscle weight per body weight are shown in Fig. 2 (n = 6, *P < 0.05, **P < 0.01, 2-way ANOVA with Bonferroni's post hoc test). Furthermore, under the same conditions, both gastrocnemius muscles were collected and weighed. The comparison results of gastrocnemius muscle weight per body weight are shown in Fig. 3 (n = 6, *P < 0.05, **P < 0.01, 2-way ANOVA with Bonferroni's post hoc test).
In addition, the formalin-soaked soleus muscles were cut in the cross section at its largest diameter, and sections were prepared. After HE staining, the cross-sectional area of the muscle fibers was measured. The comparison results of soleus muscle cross-sectional area are shown in Fig. 4 (the area of 400 fibers pooled from 2 mice was measured and averaged for each condition, **P < 0.01, 2-way ANOVA with Bonferroni's post hoc test).

[2] = tested on: muscle atrophy model mice (high-fat diet administered mice); assay: Effects of hydroxylated fatty acid on muscle atrophy model mice (high-fat diet administration); assay type: in vivo, C57BL/6J mice; conditions: 1% added to high-fat diet for 14 days, compared to administration of a high-fat diet alone; for soleus muscle weight (per body weight): Fig. 7, n = 12; for gastrocnemius muscle weight (per body weight): Fig. 8, n = 12; for tibialis anterior muscle cross-sectional area: HE staining, 400 fibers pooled from 2 mice, Fig. 9(B)
Description: C57BL/6J mice (male, 10 weeks old) were fed a normal diet (CE-2, CLEA Japan, Inc.), a high-fat diet (HFD32, CLEA Japan, Inc.), a 1% HYA-added high-fat diet, or a 1% LA (linoleic acid)-added high-fat diet (HYA manufactured by Noster Inc., LA manufactured by Sigma-Aldrich were used) each for 14 days to create a muscle atrophy model mouse by high-fat diet administration, and the effects by the administration of hydroxylated fatty acid were evaluated.
C57BL/6J mice (male, 10 weeks old) were fed a normal diet (CE-2, CLEA Japan, Inc.), a high-fat diet (HFD32, CLEA Japan, Inc.), a 1% HYA-added high-fat diet, or a 1% LA (linoleic acid)-added high-fat diet each for 14 days. After feeding, the mice were sacrificed and weighed. Both soleus muscles were collected and weighed. The comparison results of soleus muscle weight per body weight are shown in Fig. 7 (n = 12, **P < 0.01, 2-way ANOVA with Bonferroni's post hoc test). Furthermore, under the same conditions, both gastrocnemius muscles were collected and weighed. The comparison results of gastrocnemius muscle weight per body weight are shown in Fig. 8 (n = 12, **P < 0.01, 2-way ANOVA with Bonferroni's post hoc test).
In addition, the formalin-soaked tibialis anterior muscle was cut in the cross section at its largest diameter, and sections were prepared. After HE staining (Fig. 9(A)), the cross-sectional area of the muscle fibers was measured. The comparison results of tibialis anterior muscle cross-sectional area are shown in Fig. 9(B) (the area of 400 fibers pooled from 2 mice was measured and averaged for each condition, **P < 0.01, 2-way ANOVA with Bonferroni's post hoc test).

[3] = compared to administration of a normal diet
[4] = compared to administration of linoleic acid

| Structure (SMILES) | loss of soleus muscle (muscle weight per body weight) [1, 3] | loss of gastrocnemius muscle (gastrocnemius muscle weight per body weight) [1, 3] | loss of soleus muscle cross-sectional area [1, 3] | loss of gastrocnemius muscle (gastrocnemius muscle weight per body weight) [1, 4] | loss of soleus muscle cross-sectional area [1, 4] | soleus muscle weight (per body weight) [2] | gastrocnemius muscle weight (per body weight) [2] | tibialis anterior muscle cross-sectional area [2] |
| --- | --- | --- | --- | --- | --- | --- | --- | --- |
| CCCCC/C=C\CC(O)CCCCCCCCC(=O)O (stereo not drawn) [HYA, 10-hydroxy-cis-12-octadecenoic acid] | significantly inhibited | significantly inhibited | significantly inhibited | significantly inhibited | significantly inhibited | significantly increased | significantly increased | significantly increased |
| CCCCC/C=C\C/C=C\CCCCCCCC(=O)O [linoleic acid, reference compound] | did not significantly inhibit | did not significantly inhibit | did not significantly inhibit |  |  | a tendency toward an increase | a tendency toward an increase | a tendency toward an increase |
